Earlier results in EP1060743A1, “Oral cisapride dosage forms with an extended duration” (DEVELOPMENT CENTER FOR BIOTECHNOLOGY, priority 1999, dated 2000).
Where two headings read alike, the source gives them in different places.

Question: With `COc1cc(N)c(Cl)cc1C(=O)NC1CCN(CCCOc2ccc(F)cc2)CC1OC` (racemic) [cisapride, (±)-cis-4-amino-5-chloro-N-1-[3-(4-fluorophenoxy)propyl]-3-methoxy-4-piperidine-2-methoxybenzamide monohydrate] as the molecule, how does the solubility of cisapride (pH condition near neutral (pH of intestinal fluid)) read?
Answer: almost insoluble

Question: What about the solubility of cisapride (under acidic conditions) of the same molecule?
Answer: better solubility
